# Measurements: patent US20240294545A1 (CSPC Zhongqi Pharmaceutical Technology (Shijiazhuang) Co., …, priority 2020, published 2024)
# pIC50: −log10 of the molar value. Marks after values point to notes of the source that are not given here.
# Experiments:
# ATM = ATM (Homo sapiens (Human), UniProt Q13315); experiment: Caliper mobility shift assay for ATM; type: biochemical; conditions: read-out: IC50 of inhibitory activity on ATM kinase
# Experimental: 1.2 Determination of the Inhibitory Activities of Compounds on ATM: Caliper Mobility Shift Assay for ATM
# To a 96-well plate, 98 μL of DMSO and 2 μL of the 10 mM stock solution were added and mixed evenly so that the concentration of the solution was 200 μM.
# Based on the inhibitory rates of the compound at different concentrations, IC50 was calculated according to the formula: Y=Bottom+(Top−Bottom)/(1+(IC50/X)^HillSlope).
# [1] = tested on: subcutaneous xenograft tumor of human non-small cell lung cancer cell line NCI-H441; experiment: NCI-H441 subcutaneous xenograft, combined with irinotecan liposome injection; type: in vivo, NU/NU mice
# Experimental: 6 Efficacy Test of the Compounds of the Present Disclosure Combined with Irinotecan Liposome Injection on Inhibiting the Growth of Subcutaneous Xenograft Tumor of Human Non-Small Cell Lung Cancer Cell Line NCI-H441
# 6.1 Experimental Animals: NU/NU Mice, SPF, Female, 20 to 30 g.
# Irinotecan liposome injection (HE072), 43 mg:10 mL, milky white liquid, batch No. B37191202, provided by Preparation Research Institute 2 from CSPC Zhongqi Pharmaceutical Technology (Shijiazhuang) Co., Ltd., diluted to an appropriate concentration with 5% glucose injection while testing.
# NCI-H441 cells, provided by Nanjing Kebai Biotechnology Co., Ltd.; 1640 culture medium (gibco Company):fetal bovine serum (Lanzhou Bailing)=90%:10%, 37° C., 5% CO2.
# NU/NU nude mice were subcutaneously inoculated with NCI-H441 human non-small cell lung cancer cells. When the mean tumor volume reached 170 to 172 mm^3 (15 days after inoculation), the animals were evenly divided into groups according to the tumor volume (d0), with 6 mice in each group. 2.5 mg/kg of HE072 was administered intraperitoneally once a week for 2 times. Vehicle control, 25 mg/kg of A-193, 25 mg/kg of A-182, and 25 mg/kg of AZD1390 were administered intragastrically once a day, from Monday to Thursday every week except Friday to Sunday, for 2 weeks (8 times). The tumor volume was measured twice a week, the body weight of mouse was weighed every day, and the data were recorded. The tumor volume (TV) was calculated according to the formula: TV=½×a×b2, wherein a and b represent the long and short diameters of tumor, respectively. Tumor growth inhibitory rate TGI (%)=[1−(Ti−T0)/(Vi−V0)]×100, wherein Ti represents the mean tumor volume of a given treatment group on a certain day; TO represents the mean tumor volume of this treatment group at the beginning of administration; Vi represents the mean tumor volume of the vehicle control group on a certain day (the same day as that in Ti); V0 represents the mean tumor volume of the vehicle control group at the beginning of administration. At the end of the test (d17), the animals were sacrificed, the tumors were stripped and weighed, and the tumor weight inhibitory rates were calculated.
# [2] = tested on: intracranial murine glioma GL-261-Luc; experiment: Intracranial murine glioma GL-261-Luc model, combined with radiotherapy; type: in vivo, C57BL/6 mice
# Experimental: 8 Efficacy Test of the Compounds of the Present Disclosure Combined with Radiotherapy in the Intracranial Murine Glioma GL-261-Luc Model
# 8.1 Experimental Animals: C57BL/6 Mice, SPF, Female, 19 to 22 g.
# GL-261-Luc tumor cells, DMEM medium:fetal bovine serum=90%:10%, accompanied by adding […] L-Glu, 37° C., 5% CO2.
# Female C57BL/6 mice were anesthetized with Shutai 50 (60 mg/mL) and thiazine (1.5 mg/mL). Buprenorphine (0.1 mg/kg) was injected subcutaneously 30 min before operation and 6 h after operation to relieve pain. The operation area was disinfected with 70% ethanol solution. A sagittal incision was made on the parietal-occipital bone of anesthetized mice with a sterile scalpel, after cleaning the exposed skull surface with 3% hydrogen peroxide solution, tumor cells were injected. After injection, the skull was cleaned with 3% hydrogen peroxide solution, dried with a sterile dry cotton swab, and the incision was sutured. The state of mice was examined continuously to ensure that mice fully recovered from anesthesia.
# The inoculated mice were weighed and intraperitoneally injected with […] (150 mg/kg). After 10 min injection, the animals were anesthetized with a mixture of oxygen and isoflurane. When the animal was completely anesthetized, it was moved into the imaging room for bioluminescence detection. The bioluminescence signal of the whole animal was measured and recorded for the image.
# Bioluminescence detection was performed on the second day after operation, and the tumor-bearing mice were randomly divided into groups according to the intensity of bioluminescence. The specific groups were as follows. The administration route was intragastric administration and then JR 1 h after administration.
# After grouping, bioluminescence detection was performed 1 to 2 times a week, according to the bioluminescence data, tumor growth inhibitory rate was calculated as follows: TGI (%)=[1−(Ti−T0)/(Vi−V0)]×100, wherein Ti represents the mean bioluminescence data of a given treatment group on a certain day; T0 represents the mean bioluminescence data of this treatment group at the beginning of administration; Vi represents the mean bioluminescence data of the vehicle control group on a certain day (the same day as that in Ti); V0 represents the mean bioluminescence data of the vehicle control group at the beginning of administration.
# [3] = tested on: subcutaneous xenograft tumor of human glioblastoma LN-18; experiment: LN-18 subcutaneous xenograft, combined with radiotherapy; type: in vivo, NOG mice; conditions: compound 20 mg/kg intragastric qd × 5 + IR 1 Gy, day 17
# Experimental: 9 Efficacy Test of the Compounds of the Present Disclosure Combined with Radiotherapy on Inhibiting the Growth of Subcutaneous Xenograft Tumor of Human Glioblastoma LN-18
# 9.1 Experimental Animals: NOG Mice, SPF, Female, 18 to 22 g.
# LN-18 tumor cells, DMEM medium:fetal bovine serum=95%:5%, accompanied by adding 100 U/mL penicillin and 100 μg/mL streptomycin, 37° C., 5% CO2.
# LN18 tumor cells resuspended in serum-free DMEM medium were inoculated subcutaneously in the right costal region of experimental animals at 1.5*10^7/0.15 mL, and the animals were grouped when the tumor grew to 100 to 150 mm^3. Radiotherapy was performed 1 h after administration of compounds.
# Tumor volume: The tumor volume was measured twice a week with a vernier caliper, and the long diameter and short diameter of tumor were measured. The tumor volume was calculated as follows: tumor volume (TV)=0.5×long diameter×short diameter^2. Tumor growth inhibitory rate (TGI %) was calculated according to the tumor volume. TVXn represents the mean tumor volume on day n of the treatment group, TVX0 represents the mean tumor volume on day 0 of the treatment group, TVMn represents the mean tumor volume on day n of the control group, and TVM0 represents the mean tumor volume on day 0 of the control group.
# [4] = compound 25 mg/kg intragastric + irinotecan liposome 2.5 mg/kg ip, day 17
# [5] = compound 25 mg/kg intragastric + irinotecan liposome 2.5 mg/kg ip, end of test d17
# Chain of ATM (Q13315 whole entry): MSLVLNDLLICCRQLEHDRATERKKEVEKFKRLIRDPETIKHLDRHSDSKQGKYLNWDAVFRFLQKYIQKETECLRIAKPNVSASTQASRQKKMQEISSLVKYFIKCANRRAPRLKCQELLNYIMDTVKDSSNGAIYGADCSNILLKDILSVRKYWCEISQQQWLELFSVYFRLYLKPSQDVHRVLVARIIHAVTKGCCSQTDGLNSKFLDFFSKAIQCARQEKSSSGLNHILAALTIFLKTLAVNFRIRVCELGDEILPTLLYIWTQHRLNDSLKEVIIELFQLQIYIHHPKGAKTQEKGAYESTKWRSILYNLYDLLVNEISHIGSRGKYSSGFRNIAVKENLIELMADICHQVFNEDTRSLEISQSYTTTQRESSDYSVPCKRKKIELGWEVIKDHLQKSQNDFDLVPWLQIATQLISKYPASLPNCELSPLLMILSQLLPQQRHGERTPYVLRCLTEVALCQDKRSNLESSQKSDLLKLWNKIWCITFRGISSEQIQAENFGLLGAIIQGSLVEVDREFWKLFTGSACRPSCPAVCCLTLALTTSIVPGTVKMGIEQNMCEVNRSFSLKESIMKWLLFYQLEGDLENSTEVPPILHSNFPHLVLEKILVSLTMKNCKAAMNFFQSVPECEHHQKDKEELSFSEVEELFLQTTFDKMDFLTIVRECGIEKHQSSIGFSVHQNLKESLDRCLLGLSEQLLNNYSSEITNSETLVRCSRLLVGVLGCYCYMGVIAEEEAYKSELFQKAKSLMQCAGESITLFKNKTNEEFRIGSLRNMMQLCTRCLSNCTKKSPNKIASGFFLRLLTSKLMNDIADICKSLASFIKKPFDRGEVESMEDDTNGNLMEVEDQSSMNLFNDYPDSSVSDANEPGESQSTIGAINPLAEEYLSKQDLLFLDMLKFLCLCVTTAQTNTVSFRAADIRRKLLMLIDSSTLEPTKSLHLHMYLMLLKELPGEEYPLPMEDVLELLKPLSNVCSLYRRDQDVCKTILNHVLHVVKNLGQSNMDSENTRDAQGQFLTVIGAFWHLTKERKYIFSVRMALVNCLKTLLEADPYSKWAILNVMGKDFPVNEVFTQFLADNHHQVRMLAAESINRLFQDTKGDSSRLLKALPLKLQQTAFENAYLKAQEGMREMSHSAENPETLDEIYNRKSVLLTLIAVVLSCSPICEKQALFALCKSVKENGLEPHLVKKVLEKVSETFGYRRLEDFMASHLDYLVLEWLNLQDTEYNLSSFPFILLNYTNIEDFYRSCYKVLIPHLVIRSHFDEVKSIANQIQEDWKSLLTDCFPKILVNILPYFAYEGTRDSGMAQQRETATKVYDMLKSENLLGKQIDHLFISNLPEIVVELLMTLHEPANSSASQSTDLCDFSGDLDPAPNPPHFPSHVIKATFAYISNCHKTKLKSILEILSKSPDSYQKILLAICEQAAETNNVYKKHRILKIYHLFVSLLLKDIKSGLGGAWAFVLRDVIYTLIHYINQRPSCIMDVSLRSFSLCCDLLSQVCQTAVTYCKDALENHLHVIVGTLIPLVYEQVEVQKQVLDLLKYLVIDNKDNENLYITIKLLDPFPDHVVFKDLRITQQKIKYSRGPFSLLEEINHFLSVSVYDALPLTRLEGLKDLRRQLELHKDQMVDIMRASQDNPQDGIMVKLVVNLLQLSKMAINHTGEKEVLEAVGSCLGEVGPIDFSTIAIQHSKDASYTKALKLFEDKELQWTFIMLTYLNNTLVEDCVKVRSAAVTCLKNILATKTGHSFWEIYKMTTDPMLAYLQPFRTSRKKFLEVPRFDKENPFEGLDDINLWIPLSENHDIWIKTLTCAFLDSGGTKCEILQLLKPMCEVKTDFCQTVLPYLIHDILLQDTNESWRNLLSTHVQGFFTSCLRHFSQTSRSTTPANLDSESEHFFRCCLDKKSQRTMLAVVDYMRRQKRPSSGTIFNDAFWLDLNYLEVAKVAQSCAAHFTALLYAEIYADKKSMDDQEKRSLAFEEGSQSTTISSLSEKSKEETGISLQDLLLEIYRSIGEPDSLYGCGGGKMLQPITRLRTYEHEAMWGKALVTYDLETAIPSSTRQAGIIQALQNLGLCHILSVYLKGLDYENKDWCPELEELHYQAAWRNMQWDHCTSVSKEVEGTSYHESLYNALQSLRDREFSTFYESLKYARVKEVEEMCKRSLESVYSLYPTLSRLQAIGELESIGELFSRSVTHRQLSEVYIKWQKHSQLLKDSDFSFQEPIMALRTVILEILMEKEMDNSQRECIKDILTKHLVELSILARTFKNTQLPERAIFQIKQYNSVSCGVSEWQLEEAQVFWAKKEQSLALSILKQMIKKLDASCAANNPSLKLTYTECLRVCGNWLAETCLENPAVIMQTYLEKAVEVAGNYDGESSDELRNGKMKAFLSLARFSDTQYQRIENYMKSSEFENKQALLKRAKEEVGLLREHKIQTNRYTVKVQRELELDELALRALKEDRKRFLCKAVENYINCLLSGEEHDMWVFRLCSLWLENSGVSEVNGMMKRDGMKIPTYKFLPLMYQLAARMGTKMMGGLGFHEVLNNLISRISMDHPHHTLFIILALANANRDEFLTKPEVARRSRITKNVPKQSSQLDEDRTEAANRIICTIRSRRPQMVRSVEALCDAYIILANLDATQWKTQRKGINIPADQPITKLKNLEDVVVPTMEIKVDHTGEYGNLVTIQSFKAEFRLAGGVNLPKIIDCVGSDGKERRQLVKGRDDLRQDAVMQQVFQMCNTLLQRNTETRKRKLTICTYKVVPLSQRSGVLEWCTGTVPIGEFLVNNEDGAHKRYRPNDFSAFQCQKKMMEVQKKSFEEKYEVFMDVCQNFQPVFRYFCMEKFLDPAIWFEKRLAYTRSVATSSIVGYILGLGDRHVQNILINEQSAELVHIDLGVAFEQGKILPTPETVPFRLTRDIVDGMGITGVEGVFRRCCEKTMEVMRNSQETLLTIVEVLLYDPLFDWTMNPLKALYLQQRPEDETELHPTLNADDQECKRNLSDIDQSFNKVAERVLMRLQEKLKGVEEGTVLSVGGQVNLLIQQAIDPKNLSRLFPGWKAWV
smiles,measurement,setting,value
"C[C@@H]1COc2c(-c3ccc(OCCCN4CCCCC4)nc3)ccc3ncc4c(c23)n1c(=O)n4C [Example A-182, (R)-2,10-dimethyl-7-(6-(3-(piperidin-1-yl)propoxy)pyridin-3-yl)-9,10-dihydro-8-oxa-2,4,10a-triazanaphtho[2,1,8-cde]azulen-1(2H)-one]",pIC50,ATM,9.34
same,"inhibitory effect on tumor volume and tumor weight, in words","[1]; combined with irinotecan liposome injection, compared with AZD1390",higher than those of AZD1390
same,D 17 TGI,[1]; [4],75.1%
same,D 17 TV (MEAN ± SD),[1]; [4],278.5 ± 94.1***^## mm^3
same,Tumor weight,[1]; [5],0.26 ± 0.07 g
same,Tumor weight inhibitory rate,[1]; [5],56.1%
same,"anti-tumor activity, in words","[2]; combined with radiotherapy, compared with AZD1390",equivalent to that of AZD1390
same,D17 BLI,"[2]; compound 10 mg/kg intragastric qd × 5 + IR 2 Gy, day 17",5.24*** LOG10
same,D 17 TGI,"[2]; compound 10 mg/kg intragastric qd × 5 + IR 2 Gy, day 17, from bioluminescence",110.08%
same,D 17 TGI,[3],85.5%
same,D 17 TV (MEAN ± SD),[3],271 ± 107***^# mm^3
